Read-outs that look alike come from different tables or passages of the source.
Columns and labels:
[1] = In vitro liver microsomal stability assay, rat; assay type: in vitro ADME
Method in brief: (§1)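 Test compound at […] was incubated at 37° C with 0.5 mg/mL rat or human liver microsomes, 1 mM NADPH and 3 mM MgCl2, in triplicate, sampled 0–60 min. Remaining parent was quantified by LC-MS/MS, giving half-life and microsomal and hepatic intrinsic clearance.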

[2] = tested on: SD rats; test: Anticonvulsant effect, pentylenetetrazol (PTZ)-induced epileptic convulsion SD rat model; assay type: in vivo
Method: To establish an epileptic convulsion SD rat animal model by intraperitoneally injecting 50 mg/kg of pentylenetetrazol (PTZ) into SD rats, and evaluate the anticonvulsant effect of compound 41.
Male SD rats weighing 300±10 g, as test animals, were acclimatized for 7 days after arriving at the animal facility and were randomly divided into groups based on weight one day before administration. The rats were fasted for half a day before testing but had access to water. During the test, compound 41 was orally administered to the animals at 3.5 mg/kg in advance. Two hours after the oral administration, a PTZ solution was intraperitoneally injected at 50 mg/kg. Observations were made on the rats' epileptic convulsion behavior within 1 h of performing PTZ induction. The latency period of clonic convulsion and the latency period of tonic-clonic behavior were measured.
Behavioral raw data are finally expressed as mean±standard error (Mean S.E.M.) and statistically analyzed using One-way ANOVA Dunnett post hoc. P<0.05 indicates the presence of a significant difference, P<0.01 indicates the presence of a very significant difference, and P<0.001 indicates the presence of an extremely significant difference.

[3] = In vitro liver microsomal stability assay, human; assay type: in vitro ADME
Method in brief: as §1

[4] = tested on: SD rats; test: Loss of righting reflex in SD rats, intraperitoneal injection; assay type: in vivo; details: for rate of loss of righting reflex: within 4 h
Text: To determine the threshold for the loss of righting reflex in SD rats after injection of compound 41 in order to evaluate the sedative effect and therapeutic safety window of the compound.
Male SD rats weighing 180-200 g, as test animals, were acclimatized for 7 days after arriving at the animal facility and were randomly divided into groups based on weight one day before testing. The rats were fasted for half a day before testing but had access to water. Doses of compound 41 were designed in a 0.8-fold gradient, and the doses were set at 23.5 mg/kg, 18.8 mg/kg, 15 mg/kg, 12 mg/kg, and 9.6 mg/kg. Observations were made on the loss of righting reflex within 4 h of intraperitoneally injecting compound 41 into the rats.

[5] = Pharmacokinetic study in CD-1 mice (plasma and brain); assay type: in vivo
Method: Male CD-1 mice weighing about 25 g were randomly divided into groups of 3.
The intravenous (IV) dose was 1 mg/kg, and the intragastric (IG) dose was 5 mg/kg. Animals were fasted for 12 h before administration, with free access to water, and were fed together 3 h post-administration. Blood samples of about 0.15 mL were collected at 5 min (intravenous), 15 min, 30 min, 1 h, 2 h, 4 h, 8 h, 12 h, and 24 h post-administration into heparinized EP tubes and centrifuged at 13,500 rpm for 10 min to separate the plasma. Mouse brain tissue samples were collected after cardiac perfusion at 30 min, 2 h, and 8 h. After pretreatment, the samples were analyzed by LC-MS/MS to determine the concentration of the test compound in the plasma and brain, and pharmacokinetic parameters were calculated.

[6] = 3.5 mg/kg oral 2 h before PTZ 50 mg/kg i.p., observed 1 h, P<0.001 vs solvent control
[7] = male, mouse, IV 1 mg/kg, plasma
[8] = male, mouse, plasma, IV 1 mg/kg
[9] = male, mouse, plasma, po, IG 5 mg/kg
[10] = male, mouse, po, IG 5 mg/kg, plasma

Structure (SMILES): C[C@@]1(O)CC[C@H]2[C@H](CC[C@@H]3[C@@H]2CC[C@]2(C)[C@@H](C(=O)Cn4cnn(-c5cc(F)nc(F)c5)c4=O)CC[C@@H]32)C1 [Compound 41]
- CLint scaled at 1 µM ([1]; Rat liver microsomes): 23 mL/min/kg
- half-life at 1 µM ([1]; Rat liver microsomes): 1.8 h
- Remaining amount % at 60 min ([1]; Rat liver microsomes 0.5 mg/mL, NADPH): 68.3%
- microsomal CLint at 1 µM ([1]; Rat liver microsomes, read-out: CLint(mic)): 13 µL/min/mg
- latency period of clonic convulsion behavior [2, 6]: 2764.6 ± 1330.9 s
- latency period of tonic-clonic behavior [2, 6]: 3600 ± 0 s
- effective dose for the antiepileptic convulsion effect ([2]; oral, PTZ model): 3.5 mg/kg
- CLint scaled at 1 µM ([3]; Human liver microsomes): < 6.75 mL/min/kg
- half-life at 1 µM ([3]; Human liver microsomes): > 3.1 h
- Remaining amount % at 60 min ([3]; Human liver microsomes 0.5 mg/mL, NADPH): 98.2%
- microsomal CLint at 1 µM ([3]; Human liver microsomes, read-out: CLint(mic)): < 7.5 µL/min/mg
- rate of loss of righting reflex ([4]; 9.6 mg/kg intraperitoneal): 0
- rate of loss of righting reflex ([4]; 12 mg/kg intraperitoneal): 0
- rate of loss of righting reflex ([4]; 15 mg/kg intraperitoneal): 30%
- rate of loss of righting reflex ([4]; 18.8 mg/kg intraperitoneal): 50%
- rate of loss of righting reflex ([4]; 23.5 mg/kg intraperitoneal): 80%
- therapeutic safety window (in words) ([4]; intraperitoneal): relatively wide
- threshold dose for the loss of righting reflex ([4]; intraperitoneally injected): 12 mg/kg
- brain penetration capability (in words) ([5]; IG 5 mg/kg): strong
- AUC(0-inf) [5, 7]: 4320 ng·h/mL
- AUC(0-t) [5, 7]: 3660 ng·h/mL
- C0 [5, 7]: 490 ng/mL
- concentration at 30 min ([5]; male, mouse, brain, oral, IG 5 mg/kg, 30 min, read-out: Brain concentration): 847 ± 36 ng/g
- concentration at 2 h ([5]; male, mouse, brain, oral, IG 5 mg/kg, 2 h, read-out: Brain concentration): 1920 ± 978 ng/g
- concentration at 8 h ([5]; male, mouse, brain, oral, IG 5 mg/kg, 8 h, read-out: Brain concentration): 1590 ± 233 ng/g
- Kp at 30 min ([5]; male, mouse, brain/plasma, oral, IG 5 mg/kg, 30 min, read-out: Brain-to-blood ratio): 0.9
- Kp at 2 h ([5]; male, mouse, brain/plasma, oral, IG 5 mg/kg, 2 h, read-out: Brain-to-blood ratio): 1.5
- Kp at 8 h ([5]; male, mouse, brain/plasma, oral, IG 5 mg/kg, 8 h, read-out: Brain-to-blood ratio): 1.8
- MRT last [5, 8]: 7.9 h
- half-life [5, 8]: 9 h
- bioavailability ([5]; male, mouse, plasma, oral, IG 5 mg/kg vs IV 1 mg/kg, read-out: F (absolute bioavailability)): 109%
- concentration at 30 min ([5]; male, mouse, plasma, oral, IG 5 mg/kg, 30 min, read-out: Plasma concentration): 936 ± 119 ng/mL
- concentration at 2 h ([5]; male, mouse, plasma, oral, IG 5 mg/kg, 2 h, read-out: Plasma concentration): 1280 ± 345 ng/mL
- concentration at 8 h ([5]; male, mouse, plasma, oral, IG 5 mg/kg, 8 h, read-out: Plasma concentration): 891 ± 72 ng/mL
- MRT last [5, 9]: 9.8 h
- Tmax [5, 9]: 1 h
- half-life [5, 9]: 16.5 h
- AUC(0-inf) [5, 10]: 31300 ng·h/mL
- AUC(0-t) [5, 10]: 20000 ng·h/mL
- Cmax [5, 10]: 1670 ng/mL

From US20250368678A1, “19-NOR-C3,3-DISUBSTITUTED C21-AZACYCLO-S[…] AND METHOD FOR USING SAME” (SHANDONG LUYE PHARMACEUTICAL CO., LTD., priority 2022, published 2025)
